This note sets out measurements from patent US9056111B1, “Selective efflux inhibitors and related pharmaceutical compositions and methods of treatment” (STC.UNM, priority 2011, dated 2015).

The term IC50 denotes the concentration that inhibits the measured activity by half. Higher therefore signals lower potency.

In one series the target is ABCB1 (Homo sapiens, UniProt P08183). The experiment in a line: JC-1 efflux inhibition dose response, flow cytometry, Jurkat-DNR cells. The conditions noted are these: IC50 ABCB1 (efflux inhibition of JC-1 substrate), Jurkat-DNR cells over-expressing ABCB1; averages of two to four replicates. Here is the method:
(§1) The HyperCyt® high throughput flow cytometry platform (IntelliCyt™, Albuquerque, N. Mex.) was used to sequentially sample cells from 384-well microplates (2 μL/sample) for flow cytometer presentation at a rate of 40 samples per minute.^62-63 Flow cytometric analysis was performed on a CyAn™ flow cytometer (Beckman-Coulter, Fullerton, Calif.). The resulting time-gated data files were analyzed with HyperView® software to determine compound activity in each well. Inhibition response curves were fitted by Prism® software (GraphPad Software, Inc., San Diego, Calif.) using nonlinear least-squares regression in a sigmoidal dose response model with variable slope, also known as the four-parameter logistic equation. This type of time-gated flow cytometric data analysis was described in detail for a previous ABC transporter screen from our group.^56
The assay provider's ABCB1 over-expressing Jurkat-DNR cell line is used for confirmatory follow up instead of the CCRF-Adr cells. Each cell line (Jurkat-DNR and Ig-MXP3) is run separately against all compounds (no differential cell staining) in dose response. The assay is conducted in 384-well format in a total volume of 15.1 μL. Cells and reagents are added sequentially as follows: 1) PBS buffer (5 μL/well); 2) test compound (100 nL/well); 3) drug-resistant cells (10 μL/well) pre-stained with the JC-1 substrate at 1 μM. Final in-well concentrations of test compound range from 50 μM to 69 nM over an 18 point dose response and the cell concentration is 1×10^6 cells/mL. Nicardipine (50 μM) is added to each plate as a pan-inhibition positive control. The plate is rotated end-over-end at 4 RPM and 25° C. for 30 minutes and then cell samples are analyzed and flow cytometric data of light scatter and fluorescence emission at 530+/−20 nm (488 nm excitation, FL1) are collected.
Each cell line (Jurkat-DNR and Ig-MXP3) was run separately against all compounds (no differential cell staining) in dose-response. The protocol differed from the single point screen as describe here. Cells and reagents were added sequentially as follows: 1) PBS buffer (5 μL per well); 2) test compound (100 nL per well); 3) drug-resistant cells (10 μL, per well) pre-exposed to the JC-1 substrate at 1 μM just prior to the well addition. Final in-well concentrations of test compound ranged from 50 μM to 69 nM over an 18 point dose-response and the cell concentration was 1×10^6 cells mL^−1.
A general note: A flow cytometer gives signals particle by particle.

The target in another series is T1, ABCB1 / ABCG2 (Homo sapiens, UniProt Q9UNQ0).
T1 sequence (Q9UNQ0 1-655): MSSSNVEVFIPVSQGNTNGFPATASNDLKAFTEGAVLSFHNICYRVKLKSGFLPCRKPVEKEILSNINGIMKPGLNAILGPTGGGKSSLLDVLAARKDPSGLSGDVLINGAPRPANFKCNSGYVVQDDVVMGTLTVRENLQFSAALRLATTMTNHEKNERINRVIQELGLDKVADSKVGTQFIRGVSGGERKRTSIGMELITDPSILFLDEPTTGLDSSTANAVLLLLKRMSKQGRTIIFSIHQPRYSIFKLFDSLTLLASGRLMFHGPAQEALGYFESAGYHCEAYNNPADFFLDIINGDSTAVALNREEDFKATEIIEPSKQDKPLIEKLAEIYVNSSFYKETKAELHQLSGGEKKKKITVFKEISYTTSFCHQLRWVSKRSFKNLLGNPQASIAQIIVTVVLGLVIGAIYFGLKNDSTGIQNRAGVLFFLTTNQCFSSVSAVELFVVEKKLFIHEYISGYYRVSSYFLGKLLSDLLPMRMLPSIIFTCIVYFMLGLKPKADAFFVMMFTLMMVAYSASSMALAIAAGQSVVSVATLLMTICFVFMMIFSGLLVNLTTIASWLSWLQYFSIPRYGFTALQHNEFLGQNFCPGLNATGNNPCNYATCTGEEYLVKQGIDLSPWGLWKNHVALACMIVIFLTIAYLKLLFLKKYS
Briefly: JC-1 efflux inhibition dose response, flow cytometry, Ig-MXP3 cells. The conditions noted are these: human, probe JC-1 (1 µM), ~Fold G2 Selective (B1/G2), quotient of average ABCB1 IC50 and average ABCG2 IC50, efflux assay. Here is the method: as §1
(§2) The assay provider's ABCB1 over-expressing Jurkat-DNR cell line is used for confirmatory follow up instead of the CCRF-Adr cells. Each cell line (Jurkat-DNR and Ig-MXP3) is run separately against all compounds (no differential cell staining) in dose response. The assay is conducted in 384-well format in a total volume of 15.1 μL. Cells and reagents are added sequentially as follows: 1) PBS buffer (5 μL/well); 2) test compound (100 nL/well); 3) drug-resistant cells (10 μL/well) pre-stained with the JC-1 substrate at 1 μM. […] Nicardipine (50 μM) is added to each plate as a pan-inhibition positive control.
(§3) Each cell line (Jurkat-DNR and Ig-MXP3) was run separately against all compounds (no differential cell staining) in dose-response. The protocol differed from the single point screen as describe here. Cells and reagents were added sequentially as follows: 1) PBS buffer (5 μL per well); 2) test compound (100 nL per well); 3) drug-resistant cells (10 μL, per well) pre-exposed to the JC-1 substrate at 1 μM just prior to the well addition.

The target in the next series is T2, ABCG2 (Homo sapiens, UniProt Q9UNQ0).
T2 sequence (Q9UNQ0 1-655): T1 sequence (Q9UNQ0 1-655)
Described as above. Here is the method:
as §1, §2, §3

Sequence of ABCB1 (P08183 whole entry): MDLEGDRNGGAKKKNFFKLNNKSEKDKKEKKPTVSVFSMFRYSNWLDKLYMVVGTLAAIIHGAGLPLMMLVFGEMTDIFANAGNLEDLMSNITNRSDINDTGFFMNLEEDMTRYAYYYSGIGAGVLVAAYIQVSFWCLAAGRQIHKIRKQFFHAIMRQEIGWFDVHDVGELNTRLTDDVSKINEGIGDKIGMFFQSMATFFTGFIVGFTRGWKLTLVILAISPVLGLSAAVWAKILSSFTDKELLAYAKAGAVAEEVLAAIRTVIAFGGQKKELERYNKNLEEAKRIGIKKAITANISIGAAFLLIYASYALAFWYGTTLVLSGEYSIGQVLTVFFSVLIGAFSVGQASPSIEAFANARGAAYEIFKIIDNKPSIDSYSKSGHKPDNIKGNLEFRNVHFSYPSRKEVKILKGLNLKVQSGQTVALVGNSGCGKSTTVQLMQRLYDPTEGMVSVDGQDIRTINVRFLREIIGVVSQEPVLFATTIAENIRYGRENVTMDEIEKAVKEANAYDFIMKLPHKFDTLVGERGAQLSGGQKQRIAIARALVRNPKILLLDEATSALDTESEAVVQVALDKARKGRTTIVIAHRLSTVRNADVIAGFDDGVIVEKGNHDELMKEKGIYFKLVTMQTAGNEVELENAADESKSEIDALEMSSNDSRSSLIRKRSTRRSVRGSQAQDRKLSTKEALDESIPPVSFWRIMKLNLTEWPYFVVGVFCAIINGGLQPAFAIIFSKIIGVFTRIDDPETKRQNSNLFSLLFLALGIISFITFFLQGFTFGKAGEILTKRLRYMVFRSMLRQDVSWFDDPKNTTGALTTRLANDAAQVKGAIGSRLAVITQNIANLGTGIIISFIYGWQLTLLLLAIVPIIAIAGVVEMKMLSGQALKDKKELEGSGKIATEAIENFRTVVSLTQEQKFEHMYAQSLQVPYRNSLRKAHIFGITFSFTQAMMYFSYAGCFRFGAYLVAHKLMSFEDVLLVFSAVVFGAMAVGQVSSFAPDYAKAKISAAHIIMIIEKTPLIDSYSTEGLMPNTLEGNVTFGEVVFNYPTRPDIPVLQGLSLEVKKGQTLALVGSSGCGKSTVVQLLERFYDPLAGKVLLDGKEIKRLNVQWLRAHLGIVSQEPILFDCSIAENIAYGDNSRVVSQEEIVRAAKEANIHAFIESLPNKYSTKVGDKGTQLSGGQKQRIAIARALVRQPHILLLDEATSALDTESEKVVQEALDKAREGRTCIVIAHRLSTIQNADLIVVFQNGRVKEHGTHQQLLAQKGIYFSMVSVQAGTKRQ

Regarding `Cc1cc(N2CCN(C(=O)c3ccco3)CC2)n2nc(-c3cccc(Cl)c3)cc2n1` [Compound 10], the IC50 against ABCB1 was determined as 5.88 ± 1.17 µM; against ABCG2, 2.78 ± 0.82 µM. In addition, the selectivity ratio at 30 min at ABCB1 / ABCG2 was determined as 2.1.
The matching figures for `O=C(C1CCCCC1)N1CCN(c2cc(-c3ccccc3)nc3cc(-c4cccc(Cl)c4)nn23)CC1` [Compound 22]: 3.31 ± 1.86 µM, 2.67 ± 1.26 µM and 1.2.
As to `O=C(c1ccoc1)N1CCN(c2cc(-c3ccccc3)nc3cc(-c4cccc(Cl)c4)nn23)CC1` [Compound 11], the figures for the IC50 on ABCB1 and at ABCG2 were 8.58 ± 0.63 µM and 1.19 ± 0.26 µM, respectively. Moreover, the selectivity ratio at 30 min at ABCB1 / ABCG2 turned out to be 7. The “~Fold G2 Selective (B1/G2)” value at ABCG2 (quotient of average ABCB1 IC50 and average ABCG2 IC50, efflux assay) is 7.2 fold.
As to `CC(C)(C)c1cc(N2CCN(C(=O)c3ccoc3)CC2)n2nc(-c3ccccc3)cc2n1` [Compound 49], the results for the IC50 at ABCB1 and against ABCG2 were 5.62 µM and 11.5 µM, respectively. Besides, on ABCB1 / ABCG2, the selectivity ratio at 30 min amounted to 0.5.
The matching figures for `O=C(c1ccsc1)N1CCN(c2cc(-c3ccccc3)nc3cc(-c4cccc(Cl)c4)nn23)CC1` [Compound 12]: 3.97 ± 0.8 µM, 1.4 ± 0.32 µM and 2.8.
As for `CNCCCN(C)c1cc(-c2ccco2)nc2cc(-c3ccccc3)nn12` [Compound 79], the values for the IC50 at ABCB1 and on ABCG2 were 11.9 ± 8.94 µM and 25.5 ± 13.4 µM, respectively. Besides, at ABCB1 / ABCG2, the selectivity ratio at 30 min is 0.5.
The matching figures for `O=C(c1ccoc1)N1CCN(c2cc(-c3ccco3)nc3cc(-c4ccc(Cl)cc4)nn23)CC1` [Compound 54]: 41.5 µM, 1.89 ± 1.18 µM and 22.
On the same counts, the results for `COc1ccc(-c2cc(N3CCN(C(=O)c4ccoc4)CC3)n3nc(-c4cccc(Cl)c4)cc3n2)cc1` [Compound 29] are 4.12 ± 1.05 µM, 1.71 ± 0.58 µM and 2.4.
On the same counts, the results for `COc1ccc(-c2cc(N3CCN(C(=O)c4ccoc4)CC3)n3nc(-c4ccccc4)cc3n2)cc1` [Compound 45] are 4.55 µM, 2.37 ± 1.8 µM and 1.9.
On to `COc1ccccc1-c1cc2nc(-c3ccco3)cc(N3CCN(C(=O)c4ccoc4)CC3)n2n1` [Compound 55], for which the IC50 against ABCB1 worked out at 5.57 µM; against ABCG2, 2.76 ± 2.14 µM. Also, on ABCB1 / ABCG2, the selectivity ratio at 30 min was 2.
The matching figures for `O=C(c1ccoc1)N1CCN(c2cc(-c3ccco3)nc3cc(-c4cccs4)nn23)CC1` [Compound 51]: 8.42 µM, 1.56 ± 1.3 µM and 5.4.
On the same counts, the results for `Cc1cccc(-c2cc3nc(-c4ccccc4)cc(N4CCN(C(=O)c5ccco5)CC4)n3n2)c1` [Compound 40] are 3.88 ± 1.67 µM, 2.46 ± 1.09 µM and 1.6.
On the same counts, the results for `CC1CN(C(=O)c2ccoc2)CCN1c1cc(-c2ccco2)nc2cc(-c3ccccc3)nn12` (stereo not shown) [Compound 86] are 3.27 ± 1.43 µM, 4.65 ± 3.96 µM and 0.7.
As for `O=C(c1ccoc1)N1CCN(c2cc(-c3ccccc3)nc3cc(-c4ccccc4)nn23)CC1` [Compound 62], the IC50 against ABCB1 came out at 4.79 ± 4.23 µM; against ABCG2 it was 1.58 ± 0.63 µM. The selectivity ratio at 30 min at ABCB1 / ABCG2 was determined as 3.
The matching figures for `O=C(c1ccccc1)N1CCN(c2cc(-c3ccccc3)nc3cc(-c4ccc(F)cc4)nn23)CC1` [Compound 43]: 3.99 ± 2.31 µM, 2.03 ± 0.11 µM and 2.
On the same counts, the results for `C#Cc1cc(N2CCN(C(=O)c3ccoc3)CC2)n2nc(-c3cccc(Cl)c3)cc2n1` [Compound 32] are 10.2 ± 3.99 µM, 2.36 ± 0.53 µM and 4.3.
On to `Cc1ccc(-c2cc3nc(-c4ccco4)cc(N4CCN(C(=O)c5ccoc5)CC4)n3n2)cc1` [Compound 59], for which the IC50 stood at 11.3 µM against ABCB1 and 5.19 ± 4.22 µM against ABCG2. Besides, the selectivity ratio at 30 min on ABCB1 / ABCG2 was determined as 2.2.
On the same counts, the results for `Cc1cc(N2CCN(C(=O)c3ccoc3)CC2)n2nc(-c3ccccc3)cc2n1` [Compound 63] are 15.8 ± 3.33 µM, 7.27 ± 3.01 µM and 2.2.
On the same counts, the results for `COc1cccc(-c2cc(N3CCN(C(=O)c4ccoc4)CC3)n3nc(-c4cccc(Cl)c4)cc3n2)c1` [Compound 28] are 2.17 ± 1.02 µM, 1.14 ± 0.54 µM and 1.9.
Regarding `CN(CCN(C)c1cc(-c2ccco2)nc2cc(-c3ccccc3)nn12)C(=O)c1ccoc1` [Compound 80], the IC50 stood at 17.5 ± 5.88 µM against ABCB1 and 13 ± 7.88 µM against ABCG2. Further, on ABCB1 / ABCG2, the selectivity ratio at 30 min was found to be 1.3.
On the same counts, the results for `COc1ccccc1C(=O)N1CCN(c2cc(-c3ccccc3)nc3cc(-c4cccc(Cl)c4)nn23)CC1` [Compound 14] are 4.73 ± 1.78 µM, 4.92 ± 4.28 µM and 1.
The matching figures for `COc1ccc(C(=O)N2CCN(c3cc(-c4ccccc4)nc4cc(-c5cccc(Cl)c5)nn34)CC2)cc1` [Compound 16]: 2.89 ± 0.55 µM, 2.82 ± 1.91 µM and 1.
On the same counts, the results for `CC(C)(C)c1cc2nc(-c3ccco3)cc(N3CCN(C(=O)c4ccoc4)CC3)n2n1` [Compound 50] are 3.31 µM, 1.97 µM and 1.7.
On to `O=C(c1ccc(Cl)cc1)N1CCN(c2cc(-c3ccccc3)nc3cc(-c4cccc(Cl)c4)nn23)CC1` [Compound 19], for which the results for the IC50 against ABCB1 and against ABCG2 were 2.36 ± 0.7 µM and 2.67 ± 0.85 µM, respectively. The selectivity ratio at 30 min on ABCB1 / ABCG2 turned out to be 0.9.
`O=C(c1ccoc1)N1CCN(c2cc(-c3ccc(F)cc3)nc3cc(-c4cccc(Cl)c4)nn23)CC1` [Compound 27]: the figures for the IC50 against ABCB1 and at ABCG2 were 5.65 ± 0.11 µM and 2.41 ± 0.52 µM, respectively. For the same compound, at ABCB1 / ABCG2, the selectivity ratio at 30 min was 2.3.
Consider `O=C(c1ccoc1)N1CCN(c2cc(-c3ccco3)nc3cc(-c4cccc(-c5ccco5)c4)nn23)CC1` [Compound 60], for which the IC50 against ABCB1 was 3.98 ± 1.3 µM; against ABCG2, 0.93 ± 0.27 µM. Moreover, the selectivity ratio at 30 min at ABCB1 / ABCG2 amounted to 4.3.
The matching figures for `Cc1cccc(-c2cc3nc(-c4ccco4)cc(N4CCN(C(=O)c5ccoc5)CC4)n3n2)c1` [Compound 58]: 3.45 µM, 0.58 µM and 5.9.
On the same counts, the results for `Cc1nc2cc(-c3ccccc3)nn2c(N2CCN(C(=O)c3ccoc3)CC2)c1C` [Compound 89] are 1.63 ± 0.59 µM, 2.18 ± 1.93 µM and 0.7.
